Data: patent publication US10858356B2, “Pyrazolopyridine derivative having GLP-1 receptor agonist effect” (Chugai Seiyaku Kabushiki Kaisha, priority 2016, dated 2020)

The molecules below were run against human GLP1R (Homo sapiens (Human), UniProt P43220) (assay: In vitro cAMP signal activation in human GLP1R stably-expressing cell line (hGLP1R-HEK293)). Conditions: cAMP concentration in hGLP1R-HEK293; 100% = 1 nM human GLP-1 (7-37).
Format: cell-based
Description: <Test Example 1> Measurement of In Vitro cAMP Signal Activation of a Compound in Human GLP1R
A human GLP1R stably-expressing cell line (hGLP1R-HEK293) was used in the experiment. The cells were cultured in a Dulbecco's modified Eagle's medium (DMEM) containing 10% fetal bovine serum (Sigma-Aldrich), 100 units/mL penicillin G and 100 μg/mL streptomycin sulfate (Gibco), and 500 μg/mL Geneticin (Gibco), under a moist atmosphere containing 5% CO2, at 37° C.
hGLP1R-HEK293 was seeded in 96 well plates at 2.0×10^4 cells per well and cultured over night. The medium for culturing the cells was changed to 50 μL of Medium A (DMEM, 20 mM HEPES, 0.05% BSA, 0.5 mM 3-isobutyl-1-methylxanthine) the next day, and the cells were incubated at 37° C. for 30 min. Then, 50 μL of Medium B (DMEM, 20 mM HEPES, 0.05% BSA, 0.5 mM 3-isobutyl-1-methylxanthine) containing GLP-1 or the compound was added, and the cells were incubated at 37° C. for an additional 30 min. Then, 100 μL of Assay lysis buffer (Applied Bioscience) was added, and the cells were incubated at 37° C. for 30 min. The cAMP concentration was quantified using cAMP HiRange kit (Cisbio Bioassays).
By setting the cAMP concentration when the human GLP-1 (7-37) was put into action at a concentration of 1 nM to 100%, the cAMP concentration of each well was converted to a reaction rate (%).

Sequence of human GLP1R (P43220 24-463): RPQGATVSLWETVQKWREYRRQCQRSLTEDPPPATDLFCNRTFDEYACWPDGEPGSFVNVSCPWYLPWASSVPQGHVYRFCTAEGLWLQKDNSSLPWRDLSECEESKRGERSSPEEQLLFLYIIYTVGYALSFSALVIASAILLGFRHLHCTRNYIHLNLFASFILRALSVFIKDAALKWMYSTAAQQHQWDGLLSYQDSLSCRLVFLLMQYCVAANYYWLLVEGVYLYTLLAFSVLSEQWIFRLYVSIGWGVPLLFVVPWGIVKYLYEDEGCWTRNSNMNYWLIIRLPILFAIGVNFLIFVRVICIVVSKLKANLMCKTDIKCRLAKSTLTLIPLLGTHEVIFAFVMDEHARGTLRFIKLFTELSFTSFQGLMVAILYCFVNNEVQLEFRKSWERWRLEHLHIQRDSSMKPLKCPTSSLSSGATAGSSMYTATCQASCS

| SMILES | EC50 |
| --- | --- |
| Cc1cc(-n2nc3c(c2-n2ccn(-c4ccc5[nH]ncc5c4)c2=O)[C@H](C)N(C(=O)c2cc4cc(C5CCOC(C)(C)C5)ccc4n2[C@@]2(c4noc(=O)[nH]4)C[C@@H]2C)CC3)cc(C)c1F (stereo in doubt) [Example 34, 3-[(1S,2S)-1-[5-[(4S)-2,2-dimethyloxan-4-yl]-2-[(4S)-2-(4-fluoro-3,5-dimethylphenyl)-3-[3-(1H-indazol-5-yl)-2-oxoimidazol-1-yl]-4-methyl-6,7-dihydro-4H-pyrazolo[4,3-c]pyridine-5-carbonyl]indol-1-yl]-2-methylcyclopropyl]-4H-1,2,4-oxadiazol-5-one] | 3 nM |
| CCc1nccc(-c2ccc3c(c2)cc(C(=O)N2CCc4nn(-c5cc(C)c(F)c(C)c5)c(-n5ccn(-c6ccc7c(cnn7C)c6)c5=O)c4C2)n3[C@@]2(c3noc(=O)[nH]3)C[C@@H]2C)c1C [Example 2, 3-[(1S,2S)-1-[5-(2-ethyl-3-methylpyridin-4-yl)-2-[2-(4-fluoro-3,5-dimethylphenyl)-3-[3-(1-methylindazol-5-yl)-2-oxoimidazol-1-yl]-6,7-dihydro-4H-pyrazolo[4,3-c]pyridine-5-carbonyl]indol-1-yl]-2-methylcyclopropyl]-4H-1,2,4-oxadiazol-5-one] | 5.6 nM |
| CCc1nccc(-c2ccc3c(c2)cc(C(=O)N2CCc4nn(-c5cc(C)c(F)c(C)c5)c(-n5ccn(-c6ccc7c(C)nsc7c6)c5=O)c4C2)n3[C@@]2(c3noc(=O)[nH]3)C[C@@H]2C)c1C [Example 3] | 6.1 nM |
| CCc1nccc(-c2ccc3c(c2)cc(C(=O)N2CCc4nn(-c5cc(C)c(F)c(C)c5)c(-n5ccn(-c6ccc(OC)c(F)c6)c5=O)c4C2)n3[C@@]2(c3noc(=O)[nH]3)C[C@@H]2C)c1C [Example 4] | 12 nM |
| CCc1nccc(-c2ccc3c(c2)cc(C(=O)N2CCc4nn(-c5cc(C)c(F)c(C)c5)c(-n5ccn(-c6ccc7c(C)nn(C)c7c6)c5=O)c4C2)n3[C@@]2(c3noc(=O)[nH]3)C[C@@H]2C)c1C [Example 5, 3-[(1S,2S)-1-[2-[3-[3-(1,3-dimethylindazol-6-yl)-2-oxoimidazol-1-yl]-2-(4-fluoro-3,5-dimethylphenyl)-6,7-dihydro-4H-pyrazolo[4,3-c]pyridine-5-carbonyl]-5-(2-ethyl-3-methylpyridin-4-yl)indol-1-yl]-2-methylcyclopropyl]-4H-1,2,4-oxadiazol-5-one] | 6.1 nM |
| COc1nccc(-c2ccc3c(c2)cc(C(=O)N2CCc4nn(-c5cc(C)c(F)c(C)c5)c(-n5ccn(-c6ccc7c(cnn7CC(C)(C)O)c6)c5=O)c4C2)n3[C@@]2(c3noc(=O)[nH]3)C[C@@H]2C)c1C [Example 6, 3-[(1S,2S)-1-[2-[2-(4-fluoro-3,5-dimethylphenyl)-3-[3-[1-(2-hydroxy-2-methylpropyl)indazol-5-yl]-2-oxoimidazol-1-yl]-6,7-dihydro-4H-pyrazolo[4,3-c]pyridine-5-carbonyl]-5-(2-methoxy-3-methylpyridin-4-yl)indol-1-yl]-2-methylcyclopropyl]-4H-1,2,4-oxadiazol-5-one] | 2.9 nM |
| COCCn1ncc2cc(-n3ccn(-c4c5c(nn4-c4cc(C)c(F)c(C)c4)CCN(C(=O)c4cc6cc(N7CCOC(C)(C)C7)ccc6n4[C@@]4(c6noc(=O)[nH]6)C[C@@H]4C)C5)c3=O)ccc21 [Example 7, 3-[(1S,2S)-1-[5-(2,2-dimethylmorpholin-4-yl)-2-[2-(4-fluoro-3,5-dimethylphenyl)-3-[3-[1-(2-methoxyethyl)indazol-5-yl]-2-oxoimidazol-1-yl]-6,7-dihydro-4H-pyrazolo[4,3-c]pyridine-5-carbonyl]indol-1-yl]-2-methylcyclopropyl]-4H-1,2,4-oxadiazol-5-one] | 3.2 nM |
| Cc1cc(-n2nc3c(c2-n2ccn(-c4ccc5c(cnn5CC(F)(F)F)c4)c2=O)CN(C(=O)c2cc4cc(C5CCOCC5)ccc4n2[C@@]2(c4noc(=O)[nH]4)C[C@@H]2C)CC3)cc(C)c1F [Example 10, 3-[(1S,2S)-1-[2-[2-(4-fluoro-3,5-dimethylphenyl)-3-[2-oxo-3-[1-(2,2,2-trifluoroethyl)indazol-5-yl]imidazol-1-yl]-6,7-dihydro-4H-pyrazolo[4,3-c]pyridine-5-carbonyl]-5-(oxan-4-yl)indol-1-yl]-2-methylcyclopropyl]-4H-1,2,4-oxadiazol-5-one] | 2.8 nM |
| COc1nccc(-c2ccc3c(c2)cc(C(=O)N2CCc4nn(-c5cc(C)c(F)c(C)c5)c(-n5ccn(-c6ccc7c(cnn7C)c6)c5=O)c4[C@@H]2C)n3[C@@]2(c3noc(=O)[nH]3)C[C@@H]2C)c1C [Example 12, 3-[(1S,2S)-1-[2-[(4S)-2-(4-fluoro-3,5-dimethylphenyl)-4-methyl-3-[3-(1-methylindazol-5-yl)-2-oxoimidazol-1-yl]-6,7-dihydro-4H-pyrazolo[4,3-c]pyridine-5-carbonyl]-5-(2-methoxy-3-methylpyridin-4-yl)indol-1-yl]-2-methylcyclopropyl]-4H-1,2,4-oxadiazol-5-one] | 2.7 nM |
| COc1nccc(-c2ccc3c(c2)cc(C(=O)N2CCc4nn(-c5cc(C)c(F)c(C)c5)c(-n5ccn(-c6ccc7c(cnn7CC(C)(C)O)c6)c5=O)c4[C@@H]2C)n3[C@@]2(c3noc(=O)[nH]3)C[C@@H]2C)c1C [Example 13, 3-[(1S,2S)-1-[2-[(4S)-2-(4-fluoro-3,5-dimethylphenyl)-3-[3-[1-(2-hydroxy-2-methylpropyl)indazol-5-yl]-2-oxoimidazol-1-yl]-4-methyl-6,7-dihydro-4H-pyrazolo[4,3-c]pyridine-5-carbonyl]-5-(2-methoxy-3-methylpyridin-4-yl)indol-1-yl]-2-methylcyclopropyl]-4H-1,2,4-oxadiazol-5-one] | 3.7 nM |

Now those with a lower EC50, led by results:

| EC50 | SMILES |
| --- | --- |
| 2.5 nM | Cc1cc(-n2nc3c(c2-n2ccn(-c4ccc5c(cnn5[C@@H]5CCOC5)c4)c2=O)CN(C(=O)c2cc4cc(C5CCOCC5)ccc4n2[C@@]2(c4noc(=O)[nH]4)C[C@@H]2C)CC3)cc(C)c1F [Example 8, 3-[(1S,2S)-1-[2-[2-(4-fluoro-3,5-dimethylphenyl)-3-[2-oxo-3-[1-[(3R)-oxolan-3-yl]indazol-5-yl]imidazol-1-yl]-6,7-dihydro-4H-pyrazolo[4,3-c]pyridine-5-carbonyl]-5-(oxan-4-yl)indol-1-yl]-2-methylcyclopropyl]-4H-1,2,4-oxadiazol-5-one] |
| 1.8 nM | COCCCN(C(C)=O)c1ccc(-n2ccn(-c3c4c(nn3-c3cc(C)c(F)c(C)c3)CCN(C(=O)c3cc5cc(C6CCOCC6)ccc5n3[C@@]3(c5noc(=O)[nH]5)C[C@@H]3C)C4)c2=O)cc1OC [Example 9, N-[4-[3-[2-(4-fluoro-3,5-dimethylphenyl)-5-[1-[(1S,2S)-2-methyl-1-(5-oxo-4H-1,2,4-oxadiazol-3-yl)cyclopropyl]-5-(oxan-4-yl)indole-2-carbonyl]-6,7-dihydro-4H-pyrazolo[4,3-c]pyridin-3-yl]-2-oxoimidazol-1-yl]-2-methoxyphenyl]-N-(3-methoxypropyl)acetamide] |
| 1.6 nM | CCS(=O)(=O)c1ccc(-n2ccn(-c3c4c(nn3-c3cc(C)c(F)c(C)c3)CCN(C(=O)c3cc5cc(C6CCOCC6)ccc5n3[C@@]3(c5noc(=O)[nH]5)CC3C)[C@H]4C)c2=O)cc1 (stereo in doubt) [Example 21, 3-[(1S,2S)-1-[2-[(4S)-3-[3-(4-ethylsulfonylphenyl)-2-oxoimidazol-1-yl]-2-(4-fluoro-3,5-dimethylphenyl)-4-methyl-6,7-dihydro-4H-pyrazolo[4,3-c]pyridine-5-carbonyl]-5-(oxan-4-yl)indol-1-yl]-2-methylcyclopropyl]-4H-1,2,4-oxadiazol-5-one] |
| 1.6 nM | COCCn1c(=O)n(C)c2cc(-n3ccn(-c4c5c(nn4-c4cc(C)c(F)c(C)c4)CCN(C(=O)c4cc6cc(C7CCOC(C)(C)C7)ccc6n4[C@@]4(c6noc(=O)[nH]6)C[C@@H]4C)[C@H]5C)c3=O)ccc21 (stereo in doubt) [Example 33, 3-[(1S,2S)-1-[5-[(4S)-2,2-dimethyloxan-4-yl]-2-[(4S)-2-(4-fluoro-3,5-dimethylphenyl)-3-[3-[1-(2-methoxyethyl)-3-methyl-2-oxobenzoimidazol-5-yl]-2-oxoimidazol-1-yl]-4-methyl-6,7-dihydro-4H-pyrazolo[4,3-c]pyridine-5-carbonyl]indol-1-yl]-2-methylcyclopropyl]-4H-1,2,4-oxadiazol-5-one] |
| 1.1 nM | COCCn1ncc2cc(-n3ccn(-c4c5c(nn4-c4cc(C)c(F)c(C)c4)CCN(C(=O)c4cc6cc(-c7ccnc(OC)c7C)ccc6n4[C@@]4(c6noc(=O)[nH]6)C[C@@H]4C)[C@H]5C)c3=O)ccc21 [Example 11, 3-[(1S,2S)-1-[2-[(4S)-2-(4-fluoro-3,5-dimethylphenyl)-3-[3-[1-(2-methoxyethyl)indazol-5-yl]-2-oxoimidazol-1-yl]-4-methyl-6,7-dihydro-4H-pyrazolo[4,3-c]pyridine-5-carbonyl]-5-(2-methoxy-3-methylpyridin-4-yl)indol-1-yl]-2-methylcyclopropyl]-4H-1,2,4-oxadiazol-5-one] |
